# Test results as given in ChEMBL document CHEMBL4507320, “Data for DCP probe NVS-MALT1” (2021).
# Legend:
# [1] = target: Atypical kinase COQ8B, mitochondrial (Homo sapiens) (UniProt Q96D53); details: Compound concentration 1000.0 nM
# [2] = target: Serine/threonine-protein kinase PAK 3 (Homo sapiens) (UniProt O75914); details: Compound concentration 1000.0 nM
# [3] = target: Serine/threonine-protein kinase WNK3 (Homo sapiens) (UniProt Q9BYP7); details: Compound concentration 1000.0 nM
# [4] = target: Ribosomal protein S6 kinase alpha-3 (Homo sapiens) (UniProt P51812); details: Compound concentration 1000.0 nM
# [5] = target: Ephrin type-B receptor 2 (Homo sapiens) (UniProt P29323); details: Compound concentration 1000.0 nM
# Sequence of Ephrin type-B receptor 2 (Homo sapiens) (P29323 whole entry): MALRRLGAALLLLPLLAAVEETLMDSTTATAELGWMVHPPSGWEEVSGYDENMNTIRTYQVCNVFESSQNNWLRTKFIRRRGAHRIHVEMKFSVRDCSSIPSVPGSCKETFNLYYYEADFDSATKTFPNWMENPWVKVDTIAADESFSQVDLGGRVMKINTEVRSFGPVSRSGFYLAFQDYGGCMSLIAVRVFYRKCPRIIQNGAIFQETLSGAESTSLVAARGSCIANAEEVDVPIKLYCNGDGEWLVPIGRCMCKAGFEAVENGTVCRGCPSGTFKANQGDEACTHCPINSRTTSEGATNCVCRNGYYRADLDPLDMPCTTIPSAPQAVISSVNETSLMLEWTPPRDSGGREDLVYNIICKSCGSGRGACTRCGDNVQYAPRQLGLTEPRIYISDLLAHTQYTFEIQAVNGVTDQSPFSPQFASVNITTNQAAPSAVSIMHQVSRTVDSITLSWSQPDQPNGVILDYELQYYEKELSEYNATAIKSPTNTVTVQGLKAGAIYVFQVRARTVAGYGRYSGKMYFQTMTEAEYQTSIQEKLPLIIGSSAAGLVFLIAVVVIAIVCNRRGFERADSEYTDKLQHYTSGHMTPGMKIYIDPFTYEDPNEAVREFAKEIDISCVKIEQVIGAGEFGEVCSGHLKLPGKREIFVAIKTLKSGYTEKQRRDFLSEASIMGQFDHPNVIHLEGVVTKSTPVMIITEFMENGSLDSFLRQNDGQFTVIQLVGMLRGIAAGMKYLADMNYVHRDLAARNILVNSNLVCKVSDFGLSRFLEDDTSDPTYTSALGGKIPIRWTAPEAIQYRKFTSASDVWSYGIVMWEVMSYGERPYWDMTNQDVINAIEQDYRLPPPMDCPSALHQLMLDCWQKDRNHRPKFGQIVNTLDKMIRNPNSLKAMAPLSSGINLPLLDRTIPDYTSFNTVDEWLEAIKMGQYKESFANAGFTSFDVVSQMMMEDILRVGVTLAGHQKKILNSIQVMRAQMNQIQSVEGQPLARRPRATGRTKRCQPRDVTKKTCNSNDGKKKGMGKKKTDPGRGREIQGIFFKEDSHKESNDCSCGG
# [6] = target: Calcium/calmodulin-dependent protein kinase type II subunit alpha (Homo sapiens) (UniProt Q9UQM7); details: Compound concentration 1000.0 nM
# [7] = system: Hepatocyte growth factor receptor (Homo sapiens), P08581 [M1250T]; details: Compound concentration 1000.0 nM
# [8] = target: Mitogen-activated protein kinase kinase kinase 4 (Homo sapiens) (UniProt Q9Y6R4); details: Compound concentration 1000.0 nM
# [9] = target: Calcium/calmodulin-dependent protein kinase type II subunit gamma (Homo sapiens) (UniProt Q13555); details: Compound concentration 1000.0 nM
# [10] = target: D(1A) dopamine receptor (Homo sapiens) (UniProt P21728); details: Compound concentration 10.0 uM
# Sequence of D(1A) dopamine receptor (Homo sapiens) (P21728 whole entry): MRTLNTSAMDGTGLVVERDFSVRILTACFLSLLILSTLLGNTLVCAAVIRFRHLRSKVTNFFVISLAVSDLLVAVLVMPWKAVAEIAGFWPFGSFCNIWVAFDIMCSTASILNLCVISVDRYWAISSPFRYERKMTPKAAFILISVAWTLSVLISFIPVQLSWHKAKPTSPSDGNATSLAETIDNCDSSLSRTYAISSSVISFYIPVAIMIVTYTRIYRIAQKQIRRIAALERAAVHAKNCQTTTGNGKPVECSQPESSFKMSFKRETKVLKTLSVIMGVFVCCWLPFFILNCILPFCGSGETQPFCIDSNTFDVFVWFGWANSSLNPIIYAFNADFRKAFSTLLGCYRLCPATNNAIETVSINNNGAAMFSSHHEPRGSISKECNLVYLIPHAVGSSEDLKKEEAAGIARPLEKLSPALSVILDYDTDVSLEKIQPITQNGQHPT
# [11] = target: Calcium/calmodulin-dependent protein kinase type IV (Homo sapiens) (UniProt Q16566); details: Compound concentration 1000.0 nM
# [12] = target: Phosphatidylinositol 3-kinase catalytic subunit type 3 (Homo sapiens) (UniProt Q8NEB9); details: Compound concentration 1000.0 nM
# [13] = target: Phosphorylase b kinase gamma catalytic chain, skeletal muscle/heart isoform (Homo sapiens) (UniProt Q16816); details: Compound concentration 1000.0 nM
# [14] = target: Rhodopsin kinase GRK7 (Homo sapiens) (UniProt Q8WTQ7); details: Compound concentration 1000.0 nM
# [15] = system: Tyrosine-protein kinase ABL1 (Homo sapiens), P00519 [F317L]; details: Compound concentration 1000.0 nM
# [16] = target: Cyclin-dependent kinase 7 (Homo sapiens) (UniProt P50613); details: Compound concentration 1000.0 nM
# [17] = system: Mast/stem cell growth factor receptor Kit (Homo sapiens), P10721 [D816V]; details: Compound concentration 1000.0 nM
# Sequence of Mast/stem cell growth factor receptor Kit (Homo sapiens), P10721 [D816V] (P10721 whole entry D816V): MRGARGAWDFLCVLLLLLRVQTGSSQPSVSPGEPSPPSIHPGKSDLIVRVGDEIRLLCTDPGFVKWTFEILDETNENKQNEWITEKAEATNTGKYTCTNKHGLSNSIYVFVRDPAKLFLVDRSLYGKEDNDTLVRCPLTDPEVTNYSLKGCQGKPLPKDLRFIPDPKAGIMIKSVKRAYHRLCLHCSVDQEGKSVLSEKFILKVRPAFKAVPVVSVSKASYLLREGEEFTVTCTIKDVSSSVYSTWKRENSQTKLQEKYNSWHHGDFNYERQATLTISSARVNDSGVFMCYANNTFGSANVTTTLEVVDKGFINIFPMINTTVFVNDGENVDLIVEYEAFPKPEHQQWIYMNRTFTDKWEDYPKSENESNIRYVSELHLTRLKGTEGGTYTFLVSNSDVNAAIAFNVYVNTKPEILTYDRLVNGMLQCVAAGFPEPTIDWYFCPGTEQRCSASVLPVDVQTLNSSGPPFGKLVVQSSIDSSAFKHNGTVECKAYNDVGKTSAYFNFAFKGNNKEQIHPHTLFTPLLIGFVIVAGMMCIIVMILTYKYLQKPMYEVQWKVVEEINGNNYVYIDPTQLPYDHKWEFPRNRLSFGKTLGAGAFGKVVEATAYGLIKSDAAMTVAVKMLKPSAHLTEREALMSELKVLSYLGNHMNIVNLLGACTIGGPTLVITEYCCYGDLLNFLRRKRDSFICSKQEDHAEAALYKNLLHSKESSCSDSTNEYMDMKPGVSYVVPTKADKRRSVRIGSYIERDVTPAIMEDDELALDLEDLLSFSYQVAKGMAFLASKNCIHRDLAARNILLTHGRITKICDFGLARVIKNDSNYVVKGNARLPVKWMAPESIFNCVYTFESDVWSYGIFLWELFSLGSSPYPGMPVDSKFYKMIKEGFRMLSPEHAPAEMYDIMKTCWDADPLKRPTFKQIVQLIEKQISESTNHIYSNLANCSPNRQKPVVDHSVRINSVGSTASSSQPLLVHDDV
# [18] = target: Serine/threonine-protein kinase ICK (Homo sapiens) (UniProt Q9UPZ9); details: Compound concentration 1000.0 nM
# [19] = target: Cyclin-dependent kinase 11B (Homo sapiens) (UniProt P21127); details: Compound concentration 1000.0 nM
# [20] = target: Kappa-type opioid receptor (Homo sapiens) (UniProt P41145); details: Compound concentration 10.0 uM
# Sequence of Kappa-type opioid receptor (Homo sapiens) (P41145 whole entry): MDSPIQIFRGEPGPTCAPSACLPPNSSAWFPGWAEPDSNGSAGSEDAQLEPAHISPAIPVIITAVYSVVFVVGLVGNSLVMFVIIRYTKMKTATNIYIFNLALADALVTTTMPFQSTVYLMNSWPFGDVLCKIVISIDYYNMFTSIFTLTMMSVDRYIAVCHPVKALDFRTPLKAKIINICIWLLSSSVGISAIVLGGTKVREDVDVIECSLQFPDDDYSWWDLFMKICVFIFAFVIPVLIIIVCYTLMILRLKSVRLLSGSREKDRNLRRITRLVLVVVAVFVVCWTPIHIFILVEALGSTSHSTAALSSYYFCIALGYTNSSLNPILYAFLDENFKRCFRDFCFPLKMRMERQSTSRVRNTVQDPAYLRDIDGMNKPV
# [21] = target: Serine/threonine-protein kinase 24 (Homo sapiens) (UniProt Q9Y6E0); details: Compound concentration 1000.0 nM
# [22] = target: Serine/threonine-protein kinase MARK1 (Homo sapiens) (UniProt Q9P0L2); details: Compound concentration 1000.0 nM
# [23] = target: Citron Rho-interacting kinase (Homo sapiens) (UniProt O14578); details: Compound concentration 1000.0 nM
# [24] = system: Phosphatidylinositol 4,5-bisphosphate 3-kinase catalytic subunit alpha isoform (Homo sapiens), P42336 [I800L]; details: Compound concentration 1000.0 nM
# [25] = target: MAP kinase-interacting serine/threonine-protein kinase 1 (Homo sapiens) (UniProt Q9BUB5); details: Compound concentration 1000.0 nM
# Sequence of MAP kinase-interacting serine/threonine-protein kinase 1 (Homo sapiens) (Q9BUB5 whole entry, looked up): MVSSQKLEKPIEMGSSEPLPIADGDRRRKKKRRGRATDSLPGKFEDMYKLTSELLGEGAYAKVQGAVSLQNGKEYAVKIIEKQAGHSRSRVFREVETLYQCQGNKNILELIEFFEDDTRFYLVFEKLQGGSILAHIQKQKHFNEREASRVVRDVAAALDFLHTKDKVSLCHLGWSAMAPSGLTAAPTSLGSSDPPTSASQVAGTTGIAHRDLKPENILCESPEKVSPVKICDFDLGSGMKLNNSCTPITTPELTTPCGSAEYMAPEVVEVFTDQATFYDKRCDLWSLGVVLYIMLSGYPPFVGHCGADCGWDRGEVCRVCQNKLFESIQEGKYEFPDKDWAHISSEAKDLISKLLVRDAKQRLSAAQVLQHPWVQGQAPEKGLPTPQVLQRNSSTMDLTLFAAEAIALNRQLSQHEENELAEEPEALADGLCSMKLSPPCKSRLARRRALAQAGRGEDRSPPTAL
# [26] = target: Serine/threonine-protein kinase Sgk3 (Homo sapiens) (UniProt Q96BR1); details: Compound concentration 1000.0 nM
# [27] = target: Atypical kinase COQ8A, mitochondrial (Homo sapiens) (UniProt Q8NI60); details: Compound concentration 1000.0 nM
# [28] = system: Tyrosine-protein kinase ABL1 (Homo sapiens), P00519 [F317I]; details: Compound concentration 1000.0 nM
# [29] = target: GABA-A receptor; anion channel (Rattus norvegicus) (UniProt O09028+P15431+P18506+P18508+P19969+P20236+P23574+P23576+P28471+P28473+P30191+P62813+P63079+P63138+Q91ZM7+Q9ES14); details: Compound concentration 10.0 uM
# [30] = target: Serine/threonine-protein kinase LATS2 (Homo sapiens) (UniProt Q9NRM7); details: Compound concentration 1000.0 nM
# [31] = target: Serine/threonine-protein kinase PAK 1 (Homo sapiens) (UniProt Q13153); details: Compound concentration 1000.0 nM
# [32] = target: Tyrosine-protein kinase CSK (Homo sapiens) (UniProt P41240); details: Compound concentration 1000.0 nM
# [33] = target: Cyclin-dependent kinase 8 (Homo sapiens) (UniProt P49336); details: Compound concentration 1000.0 nM
# [34] = target: Aurora kinase B (Homo sapiens) (UniProt Q96GD4); details: Compound concentration 1000.0 nM
# [35] = target: Serine/threonine-protein kinase B-raf (Homo sapiens) (UniProt P15056); details: Compound concentration 1000.0 nM
# [36] = target: Mitogen-activated protein kinase 6 (Homo sapiens) (UniProt Q16659); details: Compound concentration 1000.0 nM
# Sequence of Mitogen-activated protein kinase 6 (Homo sapiens) (Q16659 whole entry): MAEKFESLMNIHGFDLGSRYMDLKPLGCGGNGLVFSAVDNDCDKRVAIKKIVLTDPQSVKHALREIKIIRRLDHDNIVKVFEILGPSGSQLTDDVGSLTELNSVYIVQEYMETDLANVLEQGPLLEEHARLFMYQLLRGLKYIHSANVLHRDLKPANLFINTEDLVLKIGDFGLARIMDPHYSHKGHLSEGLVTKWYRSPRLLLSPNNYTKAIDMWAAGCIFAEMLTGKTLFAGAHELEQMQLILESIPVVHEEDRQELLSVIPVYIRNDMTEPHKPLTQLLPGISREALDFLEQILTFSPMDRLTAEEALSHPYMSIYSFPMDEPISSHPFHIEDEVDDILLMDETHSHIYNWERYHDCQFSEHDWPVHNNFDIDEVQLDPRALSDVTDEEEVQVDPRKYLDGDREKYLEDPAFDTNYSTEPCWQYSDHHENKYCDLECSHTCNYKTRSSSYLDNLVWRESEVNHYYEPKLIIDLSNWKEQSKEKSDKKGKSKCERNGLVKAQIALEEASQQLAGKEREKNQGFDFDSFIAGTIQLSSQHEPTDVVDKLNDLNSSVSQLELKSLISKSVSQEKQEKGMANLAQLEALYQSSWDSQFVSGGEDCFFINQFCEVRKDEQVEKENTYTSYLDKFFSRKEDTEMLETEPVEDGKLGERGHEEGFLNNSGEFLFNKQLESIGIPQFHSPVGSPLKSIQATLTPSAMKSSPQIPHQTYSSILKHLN
# [37] = system: Tyrosine-protein kinase ABL1 (Homo sapiens), P00519 [Q252H]; details: Compound concentration 1000.0 nM
# [38] = target: Casein kinase I isoform delta (Homo sapiens) (UniProt P48730); details: Compound concentration 1000.0 nM
# [39] = target: Alpha-2C adrenergic receptor (Homo sapiens) (UniProt P18825); details: Compound concentration 10.0 uM
# [40] = target: Calcium/calmodulin-dependent protein kinase kinase 2 (Homo sapiens) (UniProt Q96RR4); details: Compound concentration 1000.0 nM
# [41] = species: Rattus norvegicus; details: Compound concentration 10.0 uM
# [42] = target: Cyclin-dependent kinase 2 homolog (Plasmodium falciparum (isolate 3D7)) (UniProt P61075); details: Compound concentration 1000.0 nM
# [43] = target: Ephrin type-A receptor 2 (Homo sapiens) (UniProt P29317); details: Compound concentration 1000.0 nM
# Sequence of Ephrin type-A receptor 2 (Homo sapiens) (P29317 whole entry): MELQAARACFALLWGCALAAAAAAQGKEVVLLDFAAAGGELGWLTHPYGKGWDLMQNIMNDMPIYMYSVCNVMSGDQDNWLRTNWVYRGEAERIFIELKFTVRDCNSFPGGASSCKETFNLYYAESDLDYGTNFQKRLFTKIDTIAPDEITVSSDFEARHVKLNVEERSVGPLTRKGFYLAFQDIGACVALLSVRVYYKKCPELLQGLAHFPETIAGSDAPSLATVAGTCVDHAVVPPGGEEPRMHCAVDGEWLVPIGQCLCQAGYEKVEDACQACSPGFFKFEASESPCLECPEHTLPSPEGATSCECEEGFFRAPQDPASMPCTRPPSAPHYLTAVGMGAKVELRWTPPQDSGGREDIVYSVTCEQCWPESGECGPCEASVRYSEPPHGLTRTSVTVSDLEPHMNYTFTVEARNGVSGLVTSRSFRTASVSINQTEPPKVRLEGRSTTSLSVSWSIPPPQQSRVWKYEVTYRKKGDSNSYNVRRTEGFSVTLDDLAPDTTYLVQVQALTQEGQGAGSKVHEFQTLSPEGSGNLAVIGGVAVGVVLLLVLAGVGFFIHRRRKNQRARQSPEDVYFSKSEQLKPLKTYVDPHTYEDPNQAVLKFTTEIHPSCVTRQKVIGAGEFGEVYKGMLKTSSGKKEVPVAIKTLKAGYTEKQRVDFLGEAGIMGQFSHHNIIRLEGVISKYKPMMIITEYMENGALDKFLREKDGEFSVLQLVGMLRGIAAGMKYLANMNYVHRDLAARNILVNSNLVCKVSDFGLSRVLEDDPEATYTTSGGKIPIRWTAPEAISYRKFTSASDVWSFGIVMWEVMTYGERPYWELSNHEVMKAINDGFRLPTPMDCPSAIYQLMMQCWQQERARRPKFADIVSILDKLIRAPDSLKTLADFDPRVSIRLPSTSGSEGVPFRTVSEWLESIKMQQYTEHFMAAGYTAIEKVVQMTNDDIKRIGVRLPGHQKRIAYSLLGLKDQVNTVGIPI
# [44] = target: 1-phosphatidylinositol 3-phosphate 5-kinase (Homo sapiens) (UniProt Q9Y2I7); details: Compound concentration 1000.0 nM
smiles,measurement,setting,value
CO[C@@H](C)c1c(Nc2ccc([C@@H](N(C)C(=O)C3CCS(=O)(=O)CC3)C(F)(F)F)cc2)cnc2cc(Cl)nn12 [NVS-MALT1-C],residual activity,[1],96%
same,residual activity,[2],100%
same,residual activity,[3],84%
same,residual activity,[4],100%
same,residual activity,[5],92%
same,residual activity,[6],83%
same,residual activity,[7],100%
same,residual activity,[8],89%
same,residual activity,[9],84%
same,inhibition,[10],17.9%
same,residual activity,[11],100%
same,residual activity,[12],100%
same,residual activity,[13],96%
same,residual activity,[14],100%
same,residual activity,[15],89%
same,residual activity,[16],100%
same,residual activity,[17],99%
same,residual activity,[18],96%
same,residual activity,[19],100%
same,inhibition,[20],29.4%
same,residual activity,[21],89%
same,residual activity,[22],81%
same,residual activity,[23],97%
same,residual activity,[24],71%
same,residual activity,[25],100%
same,residual activity,[26],100%
same,residual activity,[27],100%
same,residual activity,[28],100%
same,inhibition,[29],20.8%
same,residual activity,[30],88%
same,residual activity,[31],83%
same,residual activity,[32],100%
same,residual activity,[33],96%
same,residual activity,[34],74%
same,residual activity,[35],76%
same,residual activity,[36],91%
same,residual activity,[37],100%
same,residual activity,[38],100%
same,inhibition,[39],1.97%
same,residual activity,[40],100%
same,inhibition,[41],5.14%
same,residual activity,[42],100%
same,residual activity,[43],83%
same,residual activity,[44],65%
CO[C@@H](C)c1c(Nc2ccc([C@H](N(C)C(=O)C3CCS(=O)(=O)CC3)C(F)(F)F)cc2)cnc2cc(Cl)nn12 [NVS-MALT1],residual activity,[1],77%
same,residual activity,[2],100%
same,residual activity,[3],95%
same,residual activity,[4],87%
same,residual activity,[5],76%
same,residual activity,[6],83%
same,residual activity,[7],92%
same,residual activity,[8],89%
same,residual activity,[9],77%
same,inhibition,[10],23.7%
same,residual activity,[11],100%
same,residual activity,[12],100%
same,residual activity,[13],93%
same,residual activity,[14],100%
same,residual activity,[15],89%
same,residual activity,[16],100%
same,residual activity,[17],96%
same,residual activity,[18],70%
same,residual activity,[19],88%
same,inhibition,[20],31.9%
same,residual activity,[21],83%
same,residual activity,[22],69%
same,residual activity,[23],94%
same,residual activity,[24],55%
same,residual activity,[25],100%
same,residual activity,[26],100%
same,residual activity,[27],100%
same,residual activity,[28],100%
same,inhibition,[29],21.3%
same,residual activity,[30],100%
same,residual activity,[31],74%
same,residual activity,[32],100%
same,residual activity,[33],39%
same,residual activity,[34],91%
same,residual activity,[35],85%
same,residual activity,[36],92%
same,residual activity,[37],100%
same,residual activity,[38],88%
same,inhibition,[39],4.48%
same,residual activity,[40],80%
same,inhibition,[41],11.6%
same,residual activity,[42],100%
same,residual activity,[43],100%
same,residual activity,[44],54%
